Values after ≈ are worked out from the molar mass of the structure shown.
Legend:
[1] = tested on: Aspergillus flavus (NCIM-539); assay: In vitro antifungal activity, MIC, agar method (CLSI); assay type: cell-based; details: NCIM539, average of three readings
Method: (§1) The newly synthesized 3-((dicyclohexylamino)(substituted phenyl/heteryl)methyl)-4-hydroxy-2H-chromen-2-one derivatives 4a–o were screened for their in vitro antifungal activity against different yeast and filamentous fungal pathogens. […] Dimethyl sulfoxide (DMSO) was used as solvent control.
(§2) All the synthesized compounds were screened for their in vitro antifungal and antibacterial activity. The antibacterial activity was evaluated against three human pathogenic bacterial strains: Escherichia coli (NCIM-2256), Bacillus subtilis (NCIM-2063) and Staphylococcus aureus (NCIM-2901). The antifungal activity was evaluated against seven human pathogenic fungal strains: Candida albicans (NCIM-3471), Candida glabrata (NCYC-388), Fusarium oxysporum (NCIM-1332), Aspergillus fumigates (NCIM-902), Aspergillus flavus (NCIM-539), Aspergillus niger (NCIM-1196) and Cryptococcus neoformans (NCIM-576), which are often encountered clinically. […] Minimum inhibitory concentration (MIC) values were determined as per CLSI guidelines. Dimethyl sulfoxide (DMSO) was used as solvent control.
(§3) Antifungal activity was determined as per CLSI (formerly, NCCLS) guidelines. […] The medium yeast nitrogen base was dissolved in phosphate buffer pH 7 and it was autoclaved at 110 °C for 10 min. With each set a growth control without the antifungal agent and solvent control DMSO were included. The fungal strains were freshly sub cultured on to Sabouraud dextrose agar (SDA) and incubated at 25 °C for 72 h. The fungal cells were suspended in sterile distilled water and diluted to get 10^5 cells/mL. Ten μL of the standardized suspension was inoculated onto the control plates and the media incorporated with the antifungal agents. The inoculated plates were incubated at 25 °C for 48 h. The readings were taken at the end of 48 h and 72 h. The MIC was the lowest concentration of drug preventing growth of macroscopically visible colonies on drug containing plates when there was visible growth on the drug free control plates.

[2] = tested on: Aspergillus fumigates (NCIM-902); assay: as above; assay type: cell-based; details: NCIM902, average of three readings
Method: as §1, §2, §3

[3] = tested on: Aspergillus niger (NCIM-1196); assay: as above; assay type: cell-based; details: NCIM1196, average of three readings
Method: as §1, §2, §3

[4] = tested on: Candida albicans (NCIM-3471); assay: as above; assay type: cell-based; details: NCIM3471, average of three readings
Method: as §1, §2, §3

[5] = tested on: Candida glabrata (NCYC-388); assay: as above; assay type: cell-based; details: Nakaseomyces glabratus; average of three readings
Method: as §1, §2, §3

[6] = tested on: Cryptococcus neoformans (NCIM-576); assay: as above; assay type: cell-based; details: NCIM576, average of three readings
Method: as §1, §2, §3

[7] = tested on: Fusarium oxysporum (NCIM-1332); assay: as above; assay type: cell-based; details: NCIM1332, average of three readings
Method: as §1, §2, §3

[8] = tested on: Bacillus subtilis (NCIM-2063); assay: In vitro antibacterial activity, MIC; assay type: cell-based; details: Bacillus subtilis, NCIM2063; average of three readings
Method: (§4) The newly synthesized compounds 4a–o were screened for their in vitro antibacterial activity against the three different bacterial strains. Minimum inhibitory concentration (MIC) values for antibacterial activity were determined by standard agar method using Ampicillin as standard drug. Dimethyl sulfoxide (DMSO) was used as solvent control. […] Compound 4e bearing a 2,4-difluoro group on the phenyl ring was 48 µg/mL for E. coli, 50 µg/mL for B. subtilis and 52 µg/mL for S. aureus.
(§5) All the synthesized compounds were screened for their in vitro antifungal and antibacterial activity. The antibacterial activity was evaluated against three human pathogenic bacterial strains: Escherichia coli (NCIM-2256), Bacillus subtilis (NCIM-2063) and Staphylococcus aureus (NCIM-2901). The antifungal activity was evaluated against seven human pathogenic fungal strains: Candida albicans (NCIM-3471), Candida glabrata (NCYC-388), Fusarium oxysporum (NCIM-1332), Aspergillus fumigates (NCIM-902), Aspergillus flavus (NCIM-539), Aspergillus niger (NCIM-1196) and Cryptococcus neoformans (NCIM-576), which are often encountered clinically. Miconazole was used as standard drug. Minimum inhibitory concentration (MIC) values were determined as per CLSI guidelines. Dimethyl sulfoxide (DMSO) was used as solvent control.
(§6) All the synthesized compounds 4a–o were screened for their in vitro antibacterial activity. Minimum inhibitory concentration (MIC) values were determined using method recommended by National Committee for Clinical Laboratory Standards (NCCLS). In vitro antibacterial activities of the synthesized compounds 4a–o were tested in Nutrient Broth (NB) for bacteria by the two fold serial dilution method. Seeded broth (broth containing microbial spores) was prepared in NB from 24 h old bacterial cultures on nutrient agar (Hi-media) at 37± 1 °C. The bacterial suspension was adjusted with sterile saline to a concentration of 1× 10^−4–10^−5 C.F.U. The synthesized compounds and standard drug Ampicillin were prepared by two fold serial dilutions to obtain the required concentrations of 400, 200, 100, 50, 25, 12.5, 6.25 and 3.13 μg/mL. The tubes were incubated in BOD incubators at 37± 1 °C for bacteria. The MICs were recorded by visual observations after 24 h (for bacteria) of incubation.

[9] = tested on: Escherichia coli (NCIM-2256); assay: In vitro antibacterial activity, MIC; assay type: cell-based; details: Escherichia coli, NCIM2256; average of three readings
Method: as §4, §5, §6

[10] = tested on: Staphylococcus aureus (NCIM-2901); assay: In vitro antibacterial activity, MIC; assay type: cell-based; details: Staphylococcus aureus, NCIM2901; average of three readings
Method: as §4, §5, §6

Row | Structure (SMILES) | MIC [1] | MIC [2] | MIC [3] | MIC [4] | MIC [5] | MIC [6] | MIC [7] | MIC [8] | MIC [9] | MIC [10] | melting point
1 | O=c1oc2ccccc2c(O)c1C(c1ccccc1O)N(C1CCCCC1)C1CCCCC1 (stereo not shown) [Compound 4j, 3-((Dicyclohexylamino)(2-hydroxyphenyl)methyl)-4-hydroxy-2H-chromen-2-one] | 32 µg/mL (≈ 71.5 µM) | 55 µg/mL (≈ 123 µM) | 30 µg/mL (≈ 67 µM) | 46 µg/mL (≈ 103 µM) | 47 µg/mL (≈ 105 µM) | 35 µg/mL (≈ 78.2 µM) | 38 µg/mL (≈ 84.9 µM) | 72 µg/mL (≈ 161 µM) | 68 µg/mL (≈ 152 µM) | 72 µg/mL (≈ 161 µM) | 130 to 132 °C
2 | CCOc1cc(C(c2c(O)c3ccccc3oc2=O)N(C2CCCCC2)C2CCCCC2)ccc1O (stereo not shown) [Compound 4l, 3-((Dicyclohexylamino)(3-ethoxy-4-hydroxyphenyl)methyl)-4-hydroxy-2H-chromen-2-one] | 15 µg/mL (≈ 30.5 µM) | 36 µg/mL (≈ 73.2 µM) | 12 µg/mL (≈ 24.4 µM) | 25 µg/mL (≈ 50.9 µM) | 28 µg/mL (≈ 57 µM) | 12 µg/mL (≈ 24.4 µM) | 28 µg/mL (≈ 57 µM) | 54 µg/mL (≈ 110 µM) | 56 µg/mL (≈ 114 µM) | 54 µg/mL (≈ 110 µM) | 140 to 142 °C
3 | O=c1oc2ccccc2c(O)c1C(c1ccccn1)N(C1CCCCC1)C1CCCCC1 (stereo not shown) [Compound 4m, 3-((Dicyclohexylamino)(pyridin-2-yl)methyl)-4-hydroxy-2H-chromen-2-one] | 25 µg/mL (≈ 57.8 µM) | 45 µg/mL (≈ 104 µM) | 22 µg/mL (≈ 50.9 µM) | 48 µg/mL (≈ 111 µM) | 46 µg/mL (≈ 106 µM) | 28 µg/mL (≈ 64.7 µM) | 40 µg/mL (≈ 92.5 µM) | 74 µg/mL (≈ 171 µM) | 68 µg/mL (≈ 157 µM) | 78 µg/mL (≈ 180 µM) | 148 to 150 °C
4 | O=c1oc2ccccc2c(O)c1C(c1cccs1)N(C1CCCCC1)C1CCCCC1 (stereo not shown) [Compound 4n, 3-((Dicyclohexylamino)(thiophen-2-yl)methyl)-4-hydroxy-2H-chromen-2-one] | 32 µg/mL (≈ 73.1 µM) | 67 µg/mL (≈ 153 µM) | 38 µg/mL (≈ 86.8 µM) | 55 µg/mL (≈ 126 µM) | 53 µg/mL (≈ 121 µM) | 33 µg/mL (≈ 75.4 µM) | 58 µg/mL (≈ 133 µM) | 74 µg/mL (≈ 169 µM) | 65 µg/mL (≈ 149 µM) | 72 µg/mL (≈ 165 µM) | 140 to 142 °C
5 | Clc1ccc(COC(Cn2ccnc2)c2ccc(Cl)cc2Cl)c(Cl)c1 (stereo not shown) [Miconazole, reference compound] | 12 µg/mL (≈ 28.8 µM) | 35 µg/mL (≈ 84.1 µM) | 12 µg/mL (≈ 28.8 µM) | 25 µg/mL (≈ 60.1 µM) | 25 µg/mL (≈ 60.1 µM) | 12 µg/mL (≈ 28.8 µM) | 25 µg/mL (≈ 60.1 µM) |  |  |  | 

Further molecules by falling MIC [1], results first:

Row | MIC [1] | MIC [2] | MIC [3] | MIC [4] | MIC [5] | MIC [6] | MIC [7] | MIC [8] | MIC [9] | MIC [10] | melting point | Structure (SMILES)
6 | 38 µg/mL (≈ 72.8 µM) | 50 µg/mL (≈ 95.8 µM) | 34 µg/mL (≈ 65.2 µM) | 48 µg/mL (≈ 92 µM) | 64 µg/mL (≈ 123 µM) | 34 µg/mL (≈ 65.2 µM) | 45 µg/mL (≈ 86.3 µM) | 68 µg/mL (≈ 130 µM) | 68 µg/mL (≈ 130 µM) | 66 µg/mL (≈ 127 µM) | 136 to 138 °C | COc1cc(C(c2c(O)c3ccccc3oc2=O)N(C2CCCCC2)C2CCCCC2)cc(OC)c1OC (stereo not shown) [Compound 4h, 3-((Dicyclohexylamino)(3,4,5-trimethoxyphenyl)methyl)-4-hydroxy-2H-chromen-2-one]
7 | 25 µg/mL (≈ 55.9 µM) | 42 µg/mL (≈ 93.8 µM) | 28 µg/mL (≈ 62.6 µM) | 32 µg/mL (≈ 71.5 µM) | 35 µg/mL (≈ 78.2 µM) | 24 µg/mL (≈ 53.6 µM) | 35 µg/mL (≈ 78.2 µM) | 66 µg/mL (≈ 147 µM) | 64 µg/mL (≈ 143 µM) | 67 µg/mL (≈ 150 µM) | 128 to 130 °C | O=c1oc2ccccc2c(O)c1C(c1ccc(O)cc1)N(C1CCCCC1)C1CCCCC1 (stereo not shown) [Compound 4i, 3-((Dicyclohexylamino)(4-hydroxyphenyl)methyl)-4-hydroxy-2H-chromen-2-one]

Reference: paper PMC6152127, “Facile Synthesis of Novel Coumarin Derivatives, Antimicrobial Analysis, Enzyme Assay, Docking Study, ADMET Prediction and Toxicity Study” (Molecules : A Journal of Synthetic Chemistry and Natural …, 2017)
